These results are taken from patent publication US20090170844A1, “Spiro Tetracyclic Compound” (priority 2006, published 2009).

Assay [1] deals with T1, human FXa (Homo sapiens, UniProt P00742).
T1 construct: purchased Enzyme Research Laboratories, Inc
The assay is described as follows: Measurement of the human FXa inhibitory action (synthetic substrate S-2222). The assay is classed as biochemical. The note with it: human FXa 0.019 U/ml, S-2222 0.4 mM, 37° C., pH 7.5. Here is the method:
In vitro FXa inhibitory activity may be measured according to the method of Kettner et al. (Journal of Biological Chemistry, vol. 265, pages 18289 to 18297, 1990). To be more specific, human FXa (product of Enzyme Research Laboratories, Inc., 0.019 U/ml) is mixed with the specimens (of the compound of the present invention) prepared by diluting the compound of the invention with dimethylsulfoxide (DMSO) to different concentrations and synthetic substrate S-2222 (Chromogenix AB, 0.4 mM), and the mixtures are incubated at 37° C. in Tris-hydrochloric acid buffer (pH 7.5). The FXa inhibitory activity of the specimen is calculated by measuring the absorbance at 405 nm.
It should be noted that the FXa inhibitory activity of the specimen is generally indicated as IC50.

Assay [2] deals with human plasma. Description: Anticoagulant activity in vitro: intrinsic coagulation time (APTT). The assay is classed as biochemical. The note with it: APTT reagent, calcium chloride 25 mM. Here is the method:
Activated partial thromboplastin time (APTT) is measured in the presence of the test compounds of the present invention diluted at various concentrations. To be more specific, each of the test compounds diluted with DMSO at various concentrations is mixed with human plasma and APTT reagent. The mixture is incubated at 37° C. for 2 minutes; calcium chloride (25 mM) is added to the mixture; and the coagulation time is thereafter measured. It should be noted that the anticoagulant activity of the test compound is described in terms of the concentration required to double the coagulation time for the case where no test compound is added.

T1 sequence (P00742 235-488 limits assumed): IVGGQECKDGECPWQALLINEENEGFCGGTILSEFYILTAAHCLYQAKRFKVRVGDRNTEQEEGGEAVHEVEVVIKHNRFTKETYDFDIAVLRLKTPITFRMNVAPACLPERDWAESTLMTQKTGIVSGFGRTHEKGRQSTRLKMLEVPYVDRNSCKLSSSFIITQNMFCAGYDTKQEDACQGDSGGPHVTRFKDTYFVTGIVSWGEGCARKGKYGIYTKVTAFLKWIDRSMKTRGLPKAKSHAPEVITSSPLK
T1 sequence (P00742 41-179 partner limits assumed): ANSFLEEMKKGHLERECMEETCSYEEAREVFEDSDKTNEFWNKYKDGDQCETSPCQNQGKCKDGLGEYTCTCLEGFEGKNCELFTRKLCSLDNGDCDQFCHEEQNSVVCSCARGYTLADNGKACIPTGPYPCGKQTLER

In general, IC50 refers to the midpoint of a concentration-inhibition curve. Regarding `O=C1CN(S(=O)(=O)c2ccc3cc(Cl)ccc3c2)CC23CNC(=O)N2C2(CCN(C4=NCCO4)CC2)CN13` (racemic) [Example 2, (±)-3′,5′,8′,11′-tetraaza-11′-(6-chloronaphthalen-2-ylsulfonyl)-1-(2-oxazolinyl)spiro[piperidine-4,6′-tricyclo[6.4.0.0^1,5]dodecane]-4′,9′-dione], the IC50 in assay [1] is 4.8 nM.
In assay [1], `O=C1CN(S(=O)(=O)c2ccc3cc(Cl)ccc3c2)CC23CNC(=O)N2C2(CCN(c4cccnn4)CC2)CN13` (racemic) [Example 3, (±)-3′,5′,8′,11′-tetraaza-11′-(6-chloronaphthalen-2-ylsulfonyl)-1-(3-pyridazinyl)spiro[piperidine-4,6′-tricyclo[6.4.0.0^1,5]dodecane]-4′,9′-dione] registered an IC50 of 4.1 nM.
`CN1CN2C3(CCN(c4ccncc4)CC3)CN3C(=O)CN(S(=O)(=O)c4ccc5cc(Cl)ccc5c4)CC32C1` (racemic) [Example 5, (±)-3′,5′,8′,11′-tetraaza-11′-(6-chloronaphthalen-2-ylsulfonyl)-3′-methyl-1-(4-pyridyl)spiro[piperidine-4,6′-tricyclo[6.4.0.0^1,5]dodecan]-9′-one] returned an IC50 in assay [1] of 4 nM.
For `CN1CC23CN(S(=O)(=O)c4ccc5cc(Cl)ccc5c4)CC(=O)N2CC2(CCN(C4=NCCCC4)CC2)N3C1=O` (single isomer, unassigned; (-)) [Example 8, (−)-3′,5′,8′,11′-tetraaza-11′-(6-chloronaphthalen-2-ylsulfonyl)-1-(3,4,5,6-tetrahydropyridin-2-yl)-3′-methylspiro[piperidine-4,6′-tricyclo[6.4.0.0^1,5]dodecane]-4′,9′-dione], the “Concentration when APTT was doubled” value in assay [2] amounted to 0.27 µM.
For `CN1CC23CN(S(=O)(=O)c4cc5ccc(Cl)cc5s4)CC(=O)N2CC2(CCN(C4=NCCO4)CC2)N3C1=O` (single isomer, unassigned; (-)) [Example 11, (−)-3′,5′,8′,11′-tetraaza-11′-(6-chlorobenzo[b]thiophen-2-ylsulfonyl)-3′-methyl-1-(2-oxazolinyl)spiro[piperidine-4,6′-tricyclo[6.4.0.0^1,5]dodecane]-4′,9′-dione], in assay [1], half-maximal inhibition (IC50) was put at 4.7 nM.
`CN1CC23CN(S(=O)(=O)c4cc5ccc(Cl)cc5s4)CC(=O)N2CC2(CCN(C4=NCCCO4)CC2)N3C1=O` (single isomer, unassigned; (-)) [Example 12, (−)-3′,5′,8′,11′-tetraaza-11′-(6-chlorobenzo[b]thiophen-2-ylsulfonyl)-1-(5,6-dihydro-4H-1,3-oxazin-2-yl)-3′-methylspiro[piperidine-4,6′-tricyclo[6.4.0.0^1,5]dodecane]-4′,9′-dione]: the “Concentration when APTT was doubled” value in assay [2] was found to be 0.34 µM.
`CN1CC23CN(S(=O)(=O)c4cc5ccc(Cl)cc5s4)CC(=O)N2CC2(CCN(C4=NCCCC4)CC2)N3C1=O` (single isomer, unassigned; (-)) [Example 14, (−)-3′,5′,8′,11′-tetraaza-11′-(6-chlorobenzo[b]thiophen-2-ylsulfonyl)-1-(3,4,5,6-tetrahydropyridin-2-yl)-3′-methylspiro[piperidine-4,6′-tricyclo[6.4.0.0^1,5]dodecane]-4′,9′-dione]: the IC50 in assay [1] is 3.6 nM. Further, in assay [2], the “Concentration when APTT was doubled” value stood at 0.24 µM.
For `CN1CC23CN(S(=O)(=O)c4cc5cc(Cl)ccc5[nH]4)CC(=O)N2CC2(CCN(C4=NCCO4)CC2)N3C1=O` (single isomer, unassigned; (-)) [Example 17, (−)-3′,5′,8′,11′-tetraaza-11′-(5-chloro-1H-indol-2-ylsulfonyl)-3′-methyl-1-(2-oxazolinyl)spiro[piperidine-4,6′-tricyclo[6.4.0.0^1,5]dodecane]-4′,9′-dione], in assay [1], half-maximal inhibition (IC50) was put at 0.4 nM.
Turning to `CN1CC23CN(S(=O)(=O)c4cc5cc(Cl)ccc5[nH]4)CC(=O)N2CC2(CCN(C4=NCCCO4)CC2)N3C1=O` (single isomer, unassigned; (-)) [Example 18, (−)-3′,5′,8′,11′-tetraaza-11′-(5-chloro-1H-indol-2-ylsulfonyl)-1-(5,6-dihydro-4H-1,3-oxazin-2-yl)-3′-methylspiro[piperidine-4,6′-tricyclo[6.4.0.0^1,5]dodecane]-4′,9′-dione], half-maximal inhibition in assay [1] (IC50) was put at 4.3 nM. In addition, the “Concentration when APTT was doubled” value in assay [2] is 0.26 µM.
In the same order, the values of `CN1CC23CN(S(=O)(=O)c4cc5cc(Cl)ccc5[nH]4)CC(=O)N2CC2(CCN(C4=NCCCC4)CC2)N3C1=O` (single isomer, unassigned; (-)) [Example 20, (−)-3′,5′,8′,11′-tetraaza-11′-(5-chloro-1H-indol-2-ylsulfonyl)-1-(3,4,5,6-tetrahydropyridin-2-yl)-3′-methylspiro[piperidine-4,6′-tricyclo[6.4.0.0^1,5]dodecane]-4′,9′-dione] are 3 nM and 0.24 µM.
Regarding `CCC(=O)N1CCC2(CC1)CN1C(=O)CN(S(=O)(=O)c3cc4cc(Cl)ccc4[nH]3)CC13CN(C)C(=O)N23` (single isomer, unassigned; (-)) [Example 22, (−)-3′,5′,8′,11′-tetraaza-11′-(5-chloro-1H-indol-2-ylsulfonyl)-3′-methyl-1-propionylspiro[piperidine-4,6′-tricyclo[6.4.0.0^1,5]dodecane]-4′,9′-dione], in assay [1], the half-maximal inhibitory concentration (IC50) was determined as 4 nM.
Take `CN1CC23CN(S(=O)(=O)c4ccc5cc(Cl)ccc5c4)CC(=O)N2CC2(CCN(C4=NCCO4)CC2)N3C1=O` (single isomer, unassigned; (-)) [Example 29, (−)-3′,5′,8′,11′-tetraaza-11′-(6-chloronaphthalen-2-ylsulfonyl)-3′-methyl-1-(2-oxazolinyl)spiro[piperidine-4,6′-tricyclo[6.4.0.0^1,5]dodecane]-4′,9′-dione]: the midpoint of inhibition in assay [1], the IC50, lay at 2.4 nM.
